Measurements: publication PMC11521309, “A novel 4-aminoquinoline chemotype with multistage antimalarial activity and lack of cross-resistance with PfCRT and PfMDR1 mutants” (PLOS Pathogens, 2024)
Several values for one entry are separate records, joined by “and”; a condition that tells them apart may be missing. Identical values can stand only once.

Experiments:
P. falciparum Dd2^Dd2 = system: P. falciparum Dd2^Dd2; set-up: key to Phenotype, Dd2^Dd2: S: sensitive; R: resistant; details: cited from earlier work
P. falciparum 7G8^7G8 = system: P. falciparum 7G8^7G8; set-up: key to Phenotype, 7G8^7G8: S: sensitive; R: resistant; details: cited from earlier work
P. falciparum Dd2^T93S = system: P. falciparum Dd2^T93S; set-up: key to Phenotype, Dd2^T93S: S: sensitive; R: resistant; details: cited from earlier work
P. falciparum Dd2^M343L = system: P. falciparum Dd2^M343L; set-up: key to Phenotype, Dd2^M343L: S: sensitive; R: resistant; details: cited from earlier work
P. falciparum 7G8^C350R = system: P. falciparum 7G8^C350R; set-up: key to Phenotype, 7G8^C350R: S: sensitive; R: resistant; details: cited from earlier work
P. falciparum Dd2^F145I = system: P. falciparum Dd2^F145I; set-up: key to Phenotype, Dd2^F145I: S: sensitive; R: resistant; details: cited from earlier work
P. falciparum Dd2^3D7 = system: P. falciparum Dd2^3D7; set-up: key: S: sensitive; R: resistant; details: ref [19],[20],[51]; cited from earlier work
P. falciparum Dd2^G353V = system: P. falciparum Dd2^G353V; set-up: key to Phenotype, Dd2^G353V: S: sensitive; R: resistant; details: cited from earlier work
P. falciparum Dd2^H97Y = system: P. falciparum Dd2^H97Y; set-up: key: S: sensitive; R: resistant; details: ref [19],[20],[51]; cited from earlier work
P. falciparum 7G8^F145I = system: P. falciparum 7G8^F145I; set-up: key to Phenotype, 7G8^F145I: S: sensitive; R: resistant; details: cited from earlier work
P. falciparum NF10^YF = system: P. falciparum NF10^YF; set-up: method as in ref 1 Veiga et al. 2016; details: means ± SEM, N 6; ref 1 Veiga et al. 2016; read-out: IC50 NF10YF; cited from earlier work
P. falciparum NF10^NF = system: P. falciparum NF10^NF; set-up: method as in ref 1 Veiga et al. 2016; details: means ± SEM, N 6; ref 1 Veiga et al. 2016; read-out: IC50 NF10NF; cited from earlier work
P. falciparum Dd2^I218F = system: P. falciparum Dd2^I218F; set-up: key to Phenotype, Dd2^I218F: S: sensitive; R: resistant; details: cited from earlier work
[1] = system: P. berghei PbGFP-Luccon liver stage; assay: In vitro inhibition of liver stage infection of Huh-7 cells, bioluminescence; format: cell-based, Plasmodium berghei; details: 10 nM, positive control
Experimental: In vitro inhibition of Plasmodium liver stage infection was assessed using bioluminescence data from Huh-7 cells infected with a firefly-luciferase-expressing P. berghei line, PbGFP-Luccon, in the presence of various compound concentrations. […] One day before drug treatment and infection, 10^4 Huh-7 cells/well were seeded in 96-well plates. The medium was then replaced by an infection medium (culture medium supplemented with 50 μg/mL gentamycin and 0.8 μg/mL amphotericin B) containing desired concentrations of test compounds. Fresh sporozoites recovered from salivary glands of infected female Anopheles stephensi mosquitoes were added to seeded Huh-7 cells at a 1:1 proportion, followed by centrifugation at 1700g for 5 minutes and incubation for 46 hours at 37°C under 5% CO2. Compound toxicity against Huh-7 cells was assessed by measuring […] using the Alamar Blue assay (Invitrogen). IC50 values were calculated using nonlinear regression analysis (GraphPad Prism version 9).

PfCRT 7G8 isoform = assay: [3H]CQ uptake in PfCRT-containing proteoliposomes; format: biochemical, Plasmodium falciparum; details: 1 μM; PfCRT 7G8, 7G8^F145I and 7G8^C350R
Experimental: Purified PfCRT variants were reconstituted in preformed liposomes made of E. coli total lipids:cholesteryl hemisuccinate 97:3 (w/w) at a protein-to-lipid ratio of 1:150 (w/w). The lumen of the proteoliposomes was composed of 100 mM KPi, pH 7.5, and 2 mM β-mercaptoethanol. Uptake of [^3H]CQ (1 Ci/mmol) or [^3H]PPQ (1 Ci/mmol) was performed by diluting PfCRT-containing proteoliposomes (30 ng of PfCRTper reaction) in an uptake buffer containing 100 mM Tris/MES, pH 5.5, in the presence or absence of 1 μM of the test compounds. In addition, 1 μM valinomycin was added to the reaction to generate a K^+ diffusion potential-driven membrane potential (ΔΨ). […] Filters were dried and incubated in a scintillation cocktail, and the radioactivity captured on the filters was counted in a Hidex SL300 scintillation counter. The efficiency of detection was calculated with a standard curve of known concentrations of each radiolabeled compound, and this was used to transform decays per minute (dpm) into pmol. The nonspecific interaction of each compound with nitrocellulose filters was determined by measuring mock uptake in the absence of liposomes or proteoliposomes. These values (determined for each experiment) were used to calculate background uptake in liposomes or proteoliposomes. […]

[2] = system: pool of barcoded P. falciparum lines (Dd2 and 3D7 backgrounds); assay: Resistome growth assay, pool of 51 barcoded lines; format: cell-based, Plasmodium falciparum; details: 3 x IC50 constant
Experimental: The resistome growth assay employs a parasite pool consisting of 51 barcoded lines including both Dd2 and 3D7 genetic backgrounds, with wild-type lines for both (S3 Table). Most lines used were derived from in vitro resistance selection experiments, with others having been CRISPR edited. All lines were barcoded via CRISPR editing of a 101bp barcode cassette into the non-essential pfpare locus (PF3D7_0709700). Parasites were cultured in RPMI-1640 medium supplemented with HEPES (5.94 g/L), NaHCO3 (2.1 g/L), glutamax (1×), hypoxanthine (50 mg/L), gentamycin ([…]), and AlbumaxII (5 g/L) at a […]. Parasite growth was monitored over 14 days by flow cytometry (Cytoflex, Beckman Coulter) by staining with 1× SYBR Green and 0.2 μM MitoTracker Deep Red. Parasitemia adjustments were made to maintain a healthy range of <5% parasitemia. Parasite cultures were harvested at day 14 and lysed by saponin (0.05%), with pellets washed twice with PBS. Barcodes were PCR amplified using 5 μL of parasite pellet and sequenced by Illumina amplicon sequencing.

[3] = Dd2Dd2, mean ± SEM, ref 1 (Ross et al., 2018)
[4] = Dd2T93S, mean ± SEM, ref 2 (Dhingra et al., 2019)
[5] = Dd2M343L, mean ± SEM, ref 1 (Ross et al., 2018)
[6] = Dd2F145I, mean ± SEM, ref 1 (Ross et al., 2018)
[7] = Dd2G353V, mean ± SEM, ref 1 (Ross et al., 2018)
[8] = Dd2I218F, mean ± SEM, ref 2 (Dhingra et al., 2019)

For `Clc1ccc2c(N3CCN(CCCN4CCN(c5ccnc6cc(Cl)ccc56)CC4)CC3)ccnc2c1` [PPQ, piperaquine], the IC50 (P. falciparum Dd2^Dd2; [3]) is given as 27.6 ± 3.1 nM, the IC90 (P. falciparum Dd2^Dd2; [3]) is given as 50.2 ± 4.2 nM and the “Phenotype, Dd2^Dd2” value (P. falciparum Dd2^Dd2; ref [19],[20],[51]) is given as “S”. The IC50 (P. falciparum 7G8^7G8; 7G87G8, mean ± SEM, ref 3 (Kim et al., 2019)) was 21.4 ± 1 nM, the “Phenotype, 7G8^7G8” value (P. falciparum 7G8^7G8; ref [19],[20],[51]) was “S” and the IC50 (P. falciparum Dd2^T93S; [4]) was 31.9 ± 5.6 nM. For the same compound, the IC90 (P. falciparum Dd2^T93S; [4]) was 6880 ± 3420 nM, the “Phenotype, Dd2^T93S” value (P. falciparum Dd2^T93S; ref [19],[20],[51]) was “R” and the IC50 (P. falciparum Dd2^M343L; [5]) was 37.6 ± 4.8 nM. For the same compound, the IC90 (P. falciparum Dd2^M343L; [5]) was 93.1 ± 9.7 nM, the “Phenotype, Dd2^M343L” value (P. falciparum Dd2^M343L; ref [19],[20],[51]) was “R” and the IC50 (P. falciparum 7G8^C350R; 7G8C350R, mean ± SEM, ref 3 (Kim et al., 2019)) was 36.5 ± 2 nM. For the same compound, the “Phenotype, 7G8^C350R” value (P. falciparum 7G8^C350R; ref [19],[20],[51]) was “R”, the IC50 (P. falciparum Dd2^F145I; [6]) was 65.3 ± 3.1 nM and the IC90 (P. falciparum Dd2^F145I; [6]) was 5770 ± 666 nM. For the same compound, the “Phenotype, Dd2^F145I” value (P. falciparum Dd2^F145I; a: sensitized to CQ compared to the parental line but not fully sensitive, ref [19],[20],[51]) was “R”, the “Phenotype, Dd2^3D7” value (P. falciparum Dd2^3D7) was “S” and the IC50 (P. falciparum Dd2^G353V; [7]) was 31.8 ± 7.4 nM. The IC90 (P. falciparum Dd2^G353V; [7]) was 3740 ± 1980 nM, the “Phenotype, Dd2^G353V” value (P. falciparum Dd2^G353V; ref [19],[20],[51]) was “R” and the “Phenotype, Dd2^H97Y” value (P. falciparum Dd2^H97Y) was “R”. The IC50 (P. falciparum 7G8^F145I; 7G8F145I, mean ± SEM, ref 3 (Kim et al., 2019)) was 28.7 ± 1 nM, the “Phenotype, 7G8^F145I” value (P. falciparum 7G8^F145I; ref [19],[20],[51]) was “R” and the IC50 (P. falciparum NF10^YF) was 41.8 ± 3.4 nM. The IC50 (P. falciparum NF10^NF) was 35.4 ± 2.1 nM, the IC50 (P. falciparum Dd2^I218F; [8]) was 42 ± 20.8 nM and the IC90 (P. falciparum Dd2^I218F; [8]) was 8600 ± 1660 nM. For the same compound, the “Phenotype, Dd2^I218F” value (P. falciparum Dd2^I218F; ref [19],[20],[51]) was “R”.

In the case of `O=C1C(O)=C([C@H]2CC[C@H](c3ccc(Cl)cc3)CC2)C(=O)c2ccccc21` [atovaquone], the “effect on hepatic infection” value [1] is reported as “almost completely ablated infection” and the “competitive inhibition of [3H]CQ or [3H]PPQ transport” value (PfCRT 7G8 isoform) is reported as “No competitive inhibition”.

For `CNC(=O)c1ccc(-c2cnc3cnc(C(=O)N(C)c4ccc(Cl)cc4)cn23)cc1` [KDU691], the “recrudescence of barcoded pool after” value [2] was 9 days and 7 days.

With `CCc1nc(N)nc(N)c1-c1ccc(Cl)cc1` [pyrimethamine] the “competitive inhibition of [3H]CQ or [3H]PPQ transport” value (PfCRT 7G8 isoform) was “No competitive inhibition”.
